Target: T1, human ODC (Homo sapiens, UniProt P11926)
T1 construct: His-tag (N); made in house; host or cells: Escherichia coli JM109
T1 sequence (P11926 1-461): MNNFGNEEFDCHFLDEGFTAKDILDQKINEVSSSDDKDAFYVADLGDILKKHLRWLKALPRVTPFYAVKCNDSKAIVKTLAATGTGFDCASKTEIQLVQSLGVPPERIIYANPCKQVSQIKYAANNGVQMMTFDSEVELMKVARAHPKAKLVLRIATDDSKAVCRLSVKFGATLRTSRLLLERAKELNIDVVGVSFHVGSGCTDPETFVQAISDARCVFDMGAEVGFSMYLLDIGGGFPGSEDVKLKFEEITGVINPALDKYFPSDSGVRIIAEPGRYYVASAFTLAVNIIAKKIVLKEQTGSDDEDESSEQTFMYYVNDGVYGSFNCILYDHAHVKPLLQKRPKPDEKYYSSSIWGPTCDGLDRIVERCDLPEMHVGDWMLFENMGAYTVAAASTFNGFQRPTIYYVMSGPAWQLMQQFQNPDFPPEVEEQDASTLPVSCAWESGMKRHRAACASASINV
Test: ODC enzyme activity assay and inhibition study (CO2-L3K coupled spectrophotometric assay);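 also: His-tagged human ODC expressed in Escherichia coli, activity followed as decarboxylation coupled via PEP carboxylation and malate formation to NADH analog oxidation, absorbance drop at 405 nm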
Type: biochemical
Conditions: for IC50 / IC50 to ornithine decarboxylase (ODC): purified human ODC, 37 °C, 10 mM ornithine, 0.2 mM PLP, n = 3; for IC50: read-out: IC50 to ornithine decarboxylase (ODC); for ODC suppression activity (in words): purified human ODC enzyme activity; for IC50 relative to that of myricetin: IC50 greater than that of myricetin

IC50 to ornithine decarboxylase (ODC) | SMILES | ODC suppression activity (in words) | also measured
– | NCCCC(N)(C(=O)O)C(F)F (racemic) [DFMO, α-DL-difluoromethylornithine, reference compound] | – | IC50: ~100 µM
– | O=C1C=Cc2ccccc2C1=O [1,2-Naphthoquinone, reference compound] | cannot inhibit ODC activity | ODC suppression activity (in words) (listed as 1,2-naphthoquinone): none of these compounds were able to suppress ODC activity
– | Cc1ncc(CO)c(C)c1O [4-Deoxypyridoxine, reference compound] | cannot inhibit ODC activity | ODC suppression activity (in words) (listed as 4-deoxypyridoxine): none of these compounds were able to suppress ODC activity
– | Cc1ncc(CO)c(C(=O)O)c1O [4-Pyridoxic acid, reference compound] | cannot inhibit ODC activity | ODC suppression activity (in words) (listed as 4-pyridoxic acid): none of these compounds were able to suppress ODC activity
– | O=c1cc(-c2ccccc2)oc2cc(O)c(O)cc12 [6,7-Dihydroxyflavone] | – | IC50 relative to that of 7,8-DHF (IC50 greater than that of 7,8-DHF): approximately 100 fold; IC50: 289 µM
No inhibition | O=c1cc(-c2ccccc2)oc2ccc(O)cc12 [6-Hydroxyflavone] | did not show any ODC suppression activity | –
– | O=c1cc(-c2ccccc2)oc2c(O)c(O)ccc12 [7,8-Dihydroxyflavone] | – | inhibition pattern with respect to L-ornithine (double reciprocal plots): noncompetitive inhibition pattern; IC50: 2.54 µM; Ki (with respect to substrate L-ornithine, noncompetitive fit, read-out: Ki(ornithine) against ODC): 1.4 ± 0.1 µM
No inhibition | COc1ccc2c(=O)cc(-c3ccccc3)oc2c1OC [7,8-Dimethoxyflavone] | little ODC suppression activity | –
No inhibition | O=c1cc(-c2ccc(O)cc2)oc2cc(O)cc(O)c12 [Apigenin] | did not show any ODC suppression activity | –
No inhibition | COc1ccc(-c2coc3cc(O)cc(O)c3c2=O)cc1 [Biochanin] | did not show any ODC suppression activity | –
– | Cn1c(=O)c2c(ncn2C)n(C)c1=O [Caffeine, reference compound] | cannot inhibit ODC activity | ODC suppression activity (in words) (listed as caffeine): none of these compounds were able to suppress ODC activity
No inhibition | O=c1cc(-c2ccccc2)oc2cc(O)cc(O)c12 [Chrysin] | little ODC suppression activity | –
No inhibition | O=c1c(-c2ccc(O)cc2)coc2cc(O)ccc12 [Daidzein] | did not show any ODC suppression activity | –
– | CCOc1cc(C=O)ccc1O [Ethyl vanillin, reference compound] | cannot inhibit ODC activity | ODC suppression activity (in words) (listed as ethyl vanillin): none of these compounds were able to suppress ODC activity
– | O=c1c(O)c(-c2ccc(O)c(O)c2)oc2cc(O)ccc12 [Fisetin] | – | IC50: 96 µM
No inhibition | O=c1cc(-c2ccccc2)oc2ccccc12 [Flavone] | little ODC suppression activity | –
– | O=c1c(O)c(-c2ccc(O)cc2)oc2cc(O)cc(O)c12 [Kaempferol] | did not show any ODC suppression activity | –
– | O=c1cc(-c2ccc(O)c(O)c2)oc2cc(O)cc(O)c12 [Luteolin] | – | IC50 relative to that of myricetin: 10 fold; IC50: 90 µM
– | O=c1c(O)c(-c2ccc(O)cc2O)oc2cc(O)cc(O)c12 [Morin] | – | IC50 relative to that of myricetin: 10 fold; IC50: 82 µM
No inhibition | O=C1C[C@@H](c2ccc(O)cc2)Oc2cc(O)cc(O)c21 [Naringenin] | did not show any ODC suppression activity | –
No inhibition | O=C1C[C@@H](c2ccccc2)Oc2cc(O)cc(O)c21 [Pinocembrin] | little ODC suppression activity | –
– | Cc1ncc(CO)c(CN)c1O [Pyridoxamine, reference compound] | cannot inhibit ODC activity | ODC suppression activity (in words) (listed as pyridoxamine): none of these compounds were able to suppress ODC activity
– | O=c1c(O)c(-c2ccc(O)c(O)c2)oc2cc(O)cc(O)c12 [Quercetin] | – | IC50 relative to that of myricetin: 10 fold; IC50: 82 µM
– | C[C@@H]1O[C@@H](OC[C@H]2O[C@@H](Oc3c(-c4ccc(O)c(O)c4)oc4cc(O)cc(O)c4c3=O)[C@H](O)[C@@H](O)[C@@H]2O)[C@H](O)[C@H](O)[C@H]1O [Rutin] | did not display apparent ODC-suppressing activity | IC50: > 120 µM
– | Oc1ccc2c(c1)OCO2 [Sesamol, reference compound] | cannot inhibit ODC activity | ODC suppression activity (in words) (listed as sesamol): none of these compounds were able to suppress ODC activity
– | Cn1cnc2c1c(=O)[nH]c(=O)n2C [Theobromine, reference compound] | cannot inhibit ODC activity | ODC suppression activity (in words) (listed as theobromine): none of these compounds were able to suppress ODC activity
– | Cn1c(=O)c2[nH]cnc2n(C)c1=O [Theophylline, reference compound] | cannot inhibit ODC activity | ODC suppression activity (in words) (listed as theophylline): none of these compounds were able to suppress ODC activity

SMILES | IC50 to ornithine decarboxylase (ODC) | ODC suppression activity (in words) | also measured
O=c1cc(-c2ccccc2)oc2cc(O)ccc12 [7-Hydroxyflavone] | No inhibition | did not show any ODC suppression activity | –
O=c1c(O)c(-c2ccccc2)oc2ccccc12 [Flavonol] | No inhibition | little ODC suppression activity | –

Source: article PMC7765794 (Nutrients, 2020)
